Assay results: patent US5614519A, “(1-(2,3 or 4-N-morpholinoalkyl)-imidazol-4-yl)-benizimidazol-1-yl-methyl]-biphenyls useful as angiotensin-II antagonists” (Karl Thomae GmbH, priority 1991, dated 1997)

System: conscious renally hypertensive rats
Assay: Effect after oral administration in conscious renally hypertensive rats
Assay type: in vivo, rat
Conditions: 10 mg/kg
Description: In addition, compounds D, E, F, G, H, M and O were tested on conscious renally hypertensive rats for their effect after oral administration using methods known from the literature.

Compound	hypotensive effect
CCCCc1nc2c(C)cc(N3C(=O)C(C)=C(C)C3=O)cc2n1Cc1ccc(-c2ccccc2C(=O)O)cc1 [Substance H, 4'-[[2-n-butyl-6-(2,3-dimethylmaleic acid imino)-4-methyl-benzimidazol-1-yl]-methyl]-biphenyl-2-carboxylic acid semihydrate]	hypotensive effect
CCCc1nc2c(C)cc(-c3nc4ccccc4n3C)cc2n1Cc1ccc(-c2ccccc2-c2nnn[nH]2)cc1 [Substance E, 4'-[[2-n-propyl-4-methyl-6-(1-methylbenzimidazol-2-yl)-benzimidazol-1-yl]-methyl]-2-(1H-tetrazol-5-yl)-biphenyl]	hypotensive effect
CCCc1nc2c(C)cc(N3Cc4ccccc4C3=O)cc2n1Cc1ccc(-c2ccccc2-c2nnn[nH]2)cc1 [Substance F, 4'-[[2-n-propyl-4-methyl-6-(1-oxo-isoindolin-2-yl)-benzimidazol-1-yl]-methyl]-2-(1H-tetrazol-5-yl)-biphenyl]	hypotensive effect
CCCc1nc2c(C)cc(-c3nc4ccccc4n3C)cc2n1Cc1ccc(-c2ccccc2C(=O)O)cc1 [Substance D, 4'-[[2-n-propyl-4-methyl-6-(1-methylbenzimidazol-2-yl)-benzimidazol-1-yl]-methyl]-biphenyl-2-carboxylic acid]	hypotensive effect
CCCc1nc2c(C)cc(-c3cn4cccnc4n3)cc2n1Cc1ccc(-c2ccccc2-c2nnn[nH]2)cc1 [Substance O, 4'-[(2-n-propyl-4-methyl-6-(imidazo[1,2-a]pyrimidin-2-yl)-benzimidazol-1-yl)-methyl]-2-(1H-tetrazol-5-yl)-biphenyl]	hypotensive effect
Cc1cc(-c2nc3ccccc3n2C)cc2c1nc(C1CC1)n2Cc1ccc(-c2ccccc2C(=O)O)cc1 [Substance M, 4'-[(2-cyclopropyl-4-methyl-6-(1-methylbenzimidazol-2-yl)-benzimidazol-1-yl)-methyl]-biphenyl-2-carboxylic acid]	hypotensive effect
CCCc1nc2c(C)cc(N3CCCCS3(=O)=O)cc2n1Cc1ccc(-c2ccccc2-c2nn[nH]n2)cc1 [Substance G, 4'-[[2-n-propyl-4-methyl-6-(butanesultam-1-yl)-benzimidazol-1-yl]-methyl]-2-(1H-tetrazol-5-yl)-biphenyl]	hypotensive effect
